Data as given in patent US6894061B2, “Substituted dihydrophenanthridinesulfonamides” (Wyeth, priority 2002, dated 2005).
Where two headings read alike, the source gives them in different places.

Experiments:
[1] = tested on: IL-6; experiment: IL-6 test procedure (IL-6 ELISA of media) in Ad5-wt-ERα infected HAECT-1 cells; format: cell-based, human; conditions: Homo sapiens, HAECT1, IL-1β; for Emax: read-out: Interleukin-6 Efficacy (%); for IC50: read-out: Interleukin-6 IC50
Procedure: After four hours, cells were washed with EBM-BSA and incubated overnight in the same medium. Following overnight incubation, cells were washed with EBM-BSA and infected for 2 hours with 6 mL of a 1:10 dilution of Ad5-3x(NFκB).Luc virus (Adenovirus luciferase expression vector driven by 3 repeats of the MHC NFκb site 5′ to the thymidine kinase promoter) in EBM-BSA. After two hours, cells were washed and incubated at 34° C. for 1 hour. […] Control (no ER infection) cells were processed as above without Ad5-wt-hERα virus infection.
ERα infected HAECT-1 cells or control cells were thawed, diluted 42× in warm EBM-BSA, plated into 96-well plates at 0.1 mL/well and incubated for 4 hours at 34° C. Test compounds were added to the cells as 2× stocks in EBM-BSA containing 2 ng/mL IL-1β (R&D Systems) and the 96-well plates were returned to the incubator (34° C.). After 15-20 hours, 100 μL aliquots of media were removed from the cells and assayed for IL-6 content using a BioSource human IL-6 ELISA Kit. Cells were subsequently washed with 300 μL of Dulbecco's phosphate buffered saline and lysed in 50 μL of Cell Culture Lysis Reagent (Promega). Luciferase was determined on a Wallac Victor^2 Luminometer (Gaithersburg, Md.) using 10 μL of lysate and mixing with 100 μL of Promega Luciferase Assay reagent. Creatine kinase was determined from the rate of increase in A340 following addition of 100 μL of CK assay reagent (Sigma, cat. No 47-10) to the remainder of the cell lysate.
For IC50 and EC50 calculations, mean IL-6, luciferase or CK values versus log10 of the compound concentration were fitted to a four parameter logistic equation. The IC50/EC50 value, ‘Hill slope’, upper and lower limits of the curve were iteratively estimated.

[2] = tested on: creatine kinase; experiment: Creatine kinase (CK) test procedure in Ad5-wt-ERα infected HAECT-1 cells; format: cell-based, human; conditions: Homo sapiens
[3] = tested on: ER/NF-κB; experiment: ER/NF-κB luciferase reporter in Ad5-wt-ERα infected HAECT-1 cells; format: cell-based, human; conditions: Homo sapiens, HAECT1, IL-1β; for IC50: read-out: ER/NFκB IC50; for Emax: read-out: ER/NFκB Efficacy (%)*
[4] = HAECT1, Ad5-wt-ERα infected HAECT-1 cells, read-out: Creatin Kinase EC50
[5] = HAECT1, Ad5-wt-ERα infected HAECT-1 cells, read-out: Creatin Kinase Efficacy (%)

| Compound | Emax [1] | IC50 [1] | EC50 [2, 4] | Emax [2, 5] | melting point | IC50 [3] | EC50 ([2]; HAECT1, read-out: Creatin Kinase EC50) | Emax [3] | Emax at 10 µM ([2]; HAECT1, @10 μM, Ad5-wt-ERα infected HAECT-1 cells, read-out: Creatin Kinase Efficacy (%)) |
| --- | --- | --- | --- | --- | --- | --- | --- | --- | --- |
| C[C@@H]1c2ccccc2-c2ccc(Cl)cc2N1S(=O)(=O)c1ccc(O)cc1O [Example 124, 4-{[(6R)-3-Chloro-6-methylphenanthridin-5(6H)-yl]sulfonyl}benzene-1,3-diol] | 19% | 224 nM | 624 nM | 4% | 178.2 to 182 °C |  |  |  |  |
| CC1c2ccccc2-c2ccc(F)cc2N1S(=O)(=O)c1cccc(O)c1 (stereo not drawn) [Example 106, 3-[(3-Fluoro-6-methylphenanthridin-5(6H)-yl)sulfonyl]phenol] | 104% | 43 nM | 1420 nM | 22% | 164 to 167 °C |  |  |  |  |
| CC1c2ccc(F)cc2-c2cc(F)ccc2N1S(=O)(=O)c1ccc(O)cc1 (stereo not drawn) [Example 116, 4-[(2,9-Difluoro-6-methylphenanthridin-5(6H)-yl)sulfonyl]phenol] | 99% | 130 nM | 326 nM | 23% | 194 to 196 °C |  |  |  |  |
| C[C@H]1c2ccccc2-c2ccc(Cl)cc2N1S(=O)(=O)c1ccc(O)cc1 [Example 123, 4-{[(6S)-3-Chloro-6-methylphenanthridin-5(6H)-yl]sulfonyl}phenol] | 154% | 7 nM |  | 2% | 213.5 to 220 °C |  |  |  |  |
| CC1c2ccccc2-c2ccc(Cl)cc2N1S(=O)(=O)c1cccc(O)c1 (stereo not drawn) [Example 118, 3-[(3-Chloro-6-methylphenanthridin-5(6H)-yl)sulfonyl]phenol] | 103% | 96 nM |  | -16% | 215 °C |  |  |  |  |
| C[C@@H]1c2ccccc2-c2ccc(F)cc2N1S(=O)(=O)c1ccc(O)cc1O [Example 110, 4-{[(6R)-3-Fluoro-6-methylphenanthridin-5(6H)-yl]sulfonyl}benzene-1,3-diol] | 38% | 2340 nM | 954 nM | -7% | 150 to 152 °C |  |  |  |  |
| CC1c2ccccc2-c2cc(F)ccc2N1S(=O)(=O)c1cccc(O)c1 (stereo not drawn) [Example 113, 3-[(2-Fluoro-6-methylphenanthridin-5(6H)-yl)sulfonyl]phenol] | 100% | 173 nM | 284 nM | 40% | 195 to 196 °C |  |  |  |  |
| CC1c2ccccc2-c2ccc(F)cc2N1S(=O)(=O)c1ccc(O)cc1 (stereo not drawn) [Example 105, 4-[(3-Fluoro-6-methylphenanthridin-5(6H)-yl)sulfonyl]phenol] | > 100% | 92 nM | 32 nM | 17% | 162 to 165 °C |  |  |  |  |
| C[C@]12CC[C@@H]3c4ccc(O)cc4CC[C@H]3[C@@H]1CC[C@@H]2O [Example E2, 17β-estradiol, reference compound] |  | ~1 nM |  |  |  | ~1 nM | 5.8 nM |  |  |
| CC1c2ccc(F)cc2-c2cc(F)ccc2N1S(=O)(=O)c1cccc(O)c1 (stereo not drawn) [Example 117, 3-[(2,9-Difluoro-6-methylphenanthridin-5(6H)-yl)sulfonyl]phenol] | 101% | 104 nM | 40 nM | 8% | 165.5 to 171 °C |  |  |  |  |
| C[C@H]1c2ccccc2-c2ccc(F)cc2N1S(=O)(=O)c1ccc(O)cc1O [Example 111, 4-{[(6S)-3-Fluoro-6-methylphenanthridin-5(6H)-yl]sulfonyl}benzene-1,3-diol] | 114% | 22 nM | 102 nM | 33% | 151 to 153 °C |  |  |  |  |
| C[C@@H]1c2ccccc2-c2ccc(Cl)cc2N1S(=O)(=O)c1cccc(O)c1 [Example 119, 3-{[(6R)-3-Chloro-6-methylphenanthridin-5(6H)-yl]sulfonyl}phenol] | 35% | 18 nM |  | 21% | 220.9 to 223 °C |  |  |  |  |
| C[C@H]1c2cc(F)ccc2-c2ccccc2N1S(=O)(=O)c1ccc(OS(N)(=O)=O)cc1 [Example 126, 4-{[(6S)-8-Fluoro-6-methylphenanthridin-5(6H)-yl]sulfonyl}phenyl sulfamate] | 99% | 40 nM | 661 nM | 61% | 166.5 to 167 °C |  |  |  |  |
| C[C@H]1c2cc(F)ccc2-c2ccccc2N1S(=O)(=O)c1ccc(O)cc1 [Example 33, 4-{[(S)-8-Fluoro-6-methylphenanthridin-5(6H)-yl]sulfonyl}phenol] | 108% | 23.4 nM | 91 nM | 21% | 193 °C | 33 nM |  | 99% |  |
| CC1c2ccccc2-c2cc(F)ccc2N1S(=O)(=O)c1ccc(O)cc1 (stereo not drawn) [Example 112, 4-[(2-Fluoro-6-methylphenanthridin-5(6H)-yl)sulfonyl]phenol] | 100% | 175 nM | 337 nM | 1% | 216 to 218 °C |  |  |  |  |
| C[C@@H]1c2cc(F)ccc2-c2ccccc2N1S(=O)(=O)c1ccc(O)cc1 [Example 34, 4-{[(R)-8-Fluoro-6-methylphenanthridin-5(6H)-yl]sulfonyl}phenol] | 35% |  |  |  | 193 °C | 2840 nM |  | 89% | < 35% |
| CC1c2ccccc2-c2ccc(Cl)cc2N1S(=O)(=O)c1ccc(O)cc1 (stereo not drawn) [Example 121, 4-[(3-Chloro-6-methylphenanthridin-5(6H)-yl)sulfonyl]phenol] | 113% | 30 nM | 107 nM | 29% | 204 °C |  |  |  |  |
| CC1c2ccc(F)cc2-c2ccc(F)cc2N1S(=O)(=O)c1cccc(O)c1 (stereo not drawn) [Example 115, 3-[(3,9-Difluoro-6-methylphenanthridin-5(6H)-yl)sulfonyl]phenol] | 102% | 81 nM | 102 nM | 16% | 167.2 to 173 °C |  |  |  |  |
